These results are taken from patent US5656669A, “Restorative neuropharmacological agent for motor and speech disturbance” (Sumitomo Pharmaceuticals Co., Ltd., priority 1994, dated 1997).

A short description of data set [1]: Short term clinical testing: central-facial palsy. In kind it is in vivo, clinical subjects. The note with it: all of the 12 cases with central-facial palsy; 300 mg per day for 2 days; none of 6 control cases.
A short description of data set [2]: Speech observation on administration and on stopping administration, Broca aphasia after stroke. In kind it is in vivo, clinical subjects. Here is the method: The clinical subjects for speech disturbance were 10 cases of Broca aphasia after stroke (3 males and 7 females, age 51-65 with an average of 58.6±1.6 years).
First, without administration of droxidopa, the clinical subjects were evaluated with standard aphasia testing (SLAT). […] For 8 of the clinical subjects, 100 mg of droxidopa was administered once a day for a subsequent 2 weeks and evaluation was conducted using SLAT.
Administration of droxidopa to these clinical subjects was stopped after 2 weeks. As a result, speech was totally lost in 2 cases. Subsequently, administration of droxidopa was stopped twice and, in one case, speech was totally lost every time administration was stopped and restored when administration was resumed.

The test system of another data set is beagle dogs. The note with it: oral 125, 500, 2,000 mg/kg/day, 12 months; cited from earlier work.
The test system of the next data set is rabbits. The conditions noted are these: oral 30, 100, 300 mg/kg/day; cited from earlier work.
The test system of another data set is Mice, ICR strain. The conditions noted are these: cited from earlier work.

The structures appear in SMILES notation. Like-named read-outs stand apart in the source and are kept apart here. A value given as a limit tells only on which side of the number the result lay.

Take `N[C@@H](C(=O)O)[C@H](O)c1ccc(O)c(O)c1` [L-threo-DOPS, (-)-(2R, 3R)-2-amino-3-hydroxy-3-(3,4-dihydroxyphenyl) propionic acid]: the “cases with central-facial palsy that showed improvement” value in data set [1] came to 12 cases. Also, the “speech after 2 days of administration” value in data set [2] (300 mg, 3 times a day for 2 days) is “speech improved”. In addition, in data set [2] (administration stopped after 2 weeks), the “cases in which speech was totally lost after administration was stopped” value came out at 2 cases. Besides, the “cases in which speech was totally lost every time administration was stopped and restored when resumed” value in data set [2] (administration stopped twice) is listed as “one”. Besides, the chronic toxicity findings entry in the data set on beagle dogs is recorded as “no abnormality was observed”. Also, the “influence, organ forming period” value with rabbits is “no influence on the rabbits was observed”. Also, the LD50 was greater than 10000 mg/kg in the data set on Mice, ICR strain (hypodermic, female); greater than 10000 mg/kg in the data set on Mice, ICR strain (hypodermic, male); greater than 100 mg/kg in the data set on Mice, ICR strain (intravenous, female); greater than 100 mg/kg in the data set with Mice, ICR strain (intravenous, male); greater than 10000 mg/kg in the data set on Mice, ICR strain (oral, female); greater than 10000 mg/kg in the data set on Mice, ICR strain (oral, male). Moreover, the “general symptoms, acute toxicity” value in the data set with Mice, ICR strain (mice) is “reduced voluntary motions, deep breathing and bradypnea were observed”.
